Tests used:
[1] = target: T1, Alpha-2B adrenergic receptor (Homo sapiens, UniProt P18089)
T1 sequence (P18089 whole entry): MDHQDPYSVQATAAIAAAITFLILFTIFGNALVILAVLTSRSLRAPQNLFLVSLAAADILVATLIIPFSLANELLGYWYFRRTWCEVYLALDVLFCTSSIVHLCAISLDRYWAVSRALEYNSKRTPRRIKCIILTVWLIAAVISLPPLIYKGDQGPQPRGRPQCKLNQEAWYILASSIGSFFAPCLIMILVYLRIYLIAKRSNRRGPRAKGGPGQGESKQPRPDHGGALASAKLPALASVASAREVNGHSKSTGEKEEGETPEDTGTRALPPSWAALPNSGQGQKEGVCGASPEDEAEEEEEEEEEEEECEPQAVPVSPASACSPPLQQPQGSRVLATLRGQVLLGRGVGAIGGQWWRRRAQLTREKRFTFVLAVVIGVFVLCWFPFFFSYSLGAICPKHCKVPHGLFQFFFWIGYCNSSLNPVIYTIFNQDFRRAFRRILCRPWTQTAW

[2] = target: T2, Alpha-2C adrenergic receptor (Homo sapiens, UniProt P18825); type: functional
T2 sequence (P18825 whole entry): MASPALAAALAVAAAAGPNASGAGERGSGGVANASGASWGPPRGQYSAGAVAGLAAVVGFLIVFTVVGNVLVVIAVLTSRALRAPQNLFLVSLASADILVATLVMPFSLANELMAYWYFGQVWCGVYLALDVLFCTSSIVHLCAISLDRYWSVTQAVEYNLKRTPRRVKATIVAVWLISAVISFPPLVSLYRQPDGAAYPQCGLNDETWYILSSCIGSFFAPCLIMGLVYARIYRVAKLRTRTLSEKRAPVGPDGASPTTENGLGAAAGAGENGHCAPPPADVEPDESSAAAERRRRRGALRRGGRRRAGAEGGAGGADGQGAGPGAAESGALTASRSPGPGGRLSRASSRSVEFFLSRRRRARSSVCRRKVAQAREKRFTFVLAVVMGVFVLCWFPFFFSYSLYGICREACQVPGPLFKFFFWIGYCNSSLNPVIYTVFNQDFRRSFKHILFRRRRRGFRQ

[3] = target: Growth hormone secretagogue receptor type 1 (Homo sapiens, UniProt Q92847)
Growth hormone secretagogue receptor type 1, sequence (Q92847 whole entry): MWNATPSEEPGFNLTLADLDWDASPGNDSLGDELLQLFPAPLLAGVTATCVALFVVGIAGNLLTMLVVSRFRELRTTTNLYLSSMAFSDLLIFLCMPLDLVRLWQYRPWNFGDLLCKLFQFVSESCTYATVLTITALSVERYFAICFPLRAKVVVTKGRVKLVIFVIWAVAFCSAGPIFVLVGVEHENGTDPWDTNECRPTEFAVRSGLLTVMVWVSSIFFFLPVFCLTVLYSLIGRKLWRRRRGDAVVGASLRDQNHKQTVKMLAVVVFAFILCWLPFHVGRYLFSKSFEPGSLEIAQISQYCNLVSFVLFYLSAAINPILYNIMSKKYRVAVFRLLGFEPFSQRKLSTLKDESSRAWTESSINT

[4] = target: Glutamate receptor ionotropic, NMDA 1 (Rattus norvegicus, UniProt P35439)
[5] = target: 5-hydroxytryptamine receptor 2B (Homo sapiens, UniProt P41595); type: functional, cell-based
5-hydroxytryptamine receptor 2B, sequence (P41595 whole entry): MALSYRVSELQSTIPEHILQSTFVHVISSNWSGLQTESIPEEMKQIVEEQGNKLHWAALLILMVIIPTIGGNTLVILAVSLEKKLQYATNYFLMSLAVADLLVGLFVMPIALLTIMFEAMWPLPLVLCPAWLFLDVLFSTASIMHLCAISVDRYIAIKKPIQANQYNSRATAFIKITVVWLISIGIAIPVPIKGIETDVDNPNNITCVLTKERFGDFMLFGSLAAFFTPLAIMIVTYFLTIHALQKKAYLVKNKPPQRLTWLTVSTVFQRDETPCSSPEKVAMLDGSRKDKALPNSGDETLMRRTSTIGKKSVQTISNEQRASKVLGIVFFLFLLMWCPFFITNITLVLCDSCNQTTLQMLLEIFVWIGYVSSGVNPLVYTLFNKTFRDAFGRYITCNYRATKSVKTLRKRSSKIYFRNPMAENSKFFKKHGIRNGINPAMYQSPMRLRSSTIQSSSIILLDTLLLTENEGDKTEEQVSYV

[6] = target: 3',5'-cyclic-AMP phosphodiesterase 4D (Homo sapiens, UniProt Q08499); type: functional
3',5'-cyclic-AMP phosphodiesterase 4D, sequence (Q08499 whole entry): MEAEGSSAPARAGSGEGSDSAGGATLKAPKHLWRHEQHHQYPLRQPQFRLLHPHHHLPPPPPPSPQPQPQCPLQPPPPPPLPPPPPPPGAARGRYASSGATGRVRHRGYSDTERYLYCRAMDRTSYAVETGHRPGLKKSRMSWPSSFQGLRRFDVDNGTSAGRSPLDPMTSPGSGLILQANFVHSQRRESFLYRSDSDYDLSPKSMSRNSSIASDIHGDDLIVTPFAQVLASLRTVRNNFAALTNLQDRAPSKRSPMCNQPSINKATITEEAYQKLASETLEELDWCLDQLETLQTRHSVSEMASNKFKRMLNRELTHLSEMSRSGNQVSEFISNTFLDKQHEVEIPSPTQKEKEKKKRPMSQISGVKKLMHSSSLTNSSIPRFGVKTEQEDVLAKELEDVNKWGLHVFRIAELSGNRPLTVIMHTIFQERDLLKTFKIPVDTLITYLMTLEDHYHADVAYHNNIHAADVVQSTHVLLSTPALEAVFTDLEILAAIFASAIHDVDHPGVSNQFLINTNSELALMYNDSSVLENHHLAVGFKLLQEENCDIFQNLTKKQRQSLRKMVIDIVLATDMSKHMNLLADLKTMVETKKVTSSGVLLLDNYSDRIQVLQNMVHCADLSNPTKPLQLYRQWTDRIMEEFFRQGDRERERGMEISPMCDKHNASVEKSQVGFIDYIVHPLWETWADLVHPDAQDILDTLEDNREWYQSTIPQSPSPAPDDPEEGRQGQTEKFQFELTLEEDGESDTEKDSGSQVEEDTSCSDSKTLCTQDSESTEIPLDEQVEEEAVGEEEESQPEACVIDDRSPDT

[7] = target: T3, Progesterone receptor (Homo sapiens, UniProt P06401); type: functional
T3 sequence (P06401 whole entry): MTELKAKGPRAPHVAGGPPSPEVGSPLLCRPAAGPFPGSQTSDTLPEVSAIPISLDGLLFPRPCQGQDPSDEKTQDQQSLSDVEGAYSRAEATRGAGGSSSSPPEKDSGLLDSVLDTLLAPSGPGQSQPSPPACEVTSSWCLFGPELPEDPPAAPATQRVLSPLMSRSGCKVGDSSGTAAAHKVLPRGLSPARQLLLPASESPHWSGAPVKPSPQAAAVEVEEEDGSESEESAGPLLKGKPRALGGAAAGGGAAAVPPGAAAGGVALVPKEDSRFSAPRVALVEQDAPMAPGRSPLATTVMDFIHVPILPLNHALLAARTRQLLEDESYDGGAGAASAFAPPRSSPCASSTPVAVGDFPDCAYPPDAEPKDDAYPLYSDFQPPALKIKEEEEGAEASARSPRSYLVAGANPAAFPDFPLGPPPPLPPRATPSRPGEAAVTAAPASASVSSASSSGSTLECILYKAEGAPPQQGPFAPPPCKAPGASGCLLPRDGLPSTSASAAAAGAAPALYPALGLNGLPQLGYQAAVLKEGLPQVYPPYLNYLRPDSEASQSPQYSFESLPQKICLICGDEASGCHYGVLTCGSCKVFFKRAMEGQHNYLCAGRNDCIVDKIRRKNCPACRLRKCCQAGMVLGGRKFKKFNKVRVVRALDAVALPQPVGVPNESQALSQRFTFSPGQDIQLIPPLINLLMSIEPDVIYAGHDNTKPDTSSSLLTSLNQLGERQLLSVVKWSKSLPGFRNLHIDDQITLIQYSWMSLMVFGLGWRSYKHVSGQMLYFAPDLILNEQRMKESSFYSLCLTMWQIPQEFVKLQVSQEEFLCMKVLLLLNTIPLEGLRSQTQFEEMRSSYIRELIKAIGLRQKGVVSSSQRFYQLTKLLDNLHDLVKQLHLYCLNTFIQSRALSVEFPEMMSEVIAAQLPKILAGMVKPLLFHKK

[8] = target: Sodium-dependent noradrenaline transporter (Homo sapiens, UniProt P23975)
Sodium-dependent noradrenaline transporter, sequence (P23975 whole entry): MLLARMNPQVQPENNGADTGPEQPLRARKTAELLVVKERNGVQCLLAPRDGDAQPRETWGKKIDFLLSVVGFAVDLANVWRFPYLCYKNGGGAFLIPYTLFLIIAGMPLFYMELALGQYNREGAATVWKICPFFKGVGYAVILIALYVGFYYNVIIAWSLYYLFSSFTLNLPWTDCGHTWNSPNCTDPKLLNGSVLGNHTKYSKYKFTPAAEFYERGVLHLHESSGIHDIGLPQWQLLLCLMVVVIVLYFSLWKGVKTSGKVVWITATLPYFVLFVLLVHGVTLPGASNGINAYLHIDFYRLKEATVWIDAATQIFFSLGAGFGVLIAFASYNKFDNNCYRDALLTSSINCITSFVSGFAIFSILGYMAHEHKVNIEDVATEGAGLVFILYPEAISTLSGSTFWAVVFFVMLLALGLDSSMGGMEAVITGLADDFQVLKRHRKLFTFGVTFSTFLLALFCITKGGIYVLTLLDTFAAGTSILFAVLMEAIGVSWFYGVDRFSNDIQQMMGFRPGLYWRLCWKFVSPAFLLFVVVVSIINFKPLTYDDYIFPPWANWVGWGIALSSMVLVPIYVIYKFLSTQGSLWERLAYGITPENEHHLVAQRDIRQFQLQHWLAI

[9] = target: T4, Mu-type opioid receptor (Homo sapiens, UniProt P35372)
T4 sequence (P35372 whole entry): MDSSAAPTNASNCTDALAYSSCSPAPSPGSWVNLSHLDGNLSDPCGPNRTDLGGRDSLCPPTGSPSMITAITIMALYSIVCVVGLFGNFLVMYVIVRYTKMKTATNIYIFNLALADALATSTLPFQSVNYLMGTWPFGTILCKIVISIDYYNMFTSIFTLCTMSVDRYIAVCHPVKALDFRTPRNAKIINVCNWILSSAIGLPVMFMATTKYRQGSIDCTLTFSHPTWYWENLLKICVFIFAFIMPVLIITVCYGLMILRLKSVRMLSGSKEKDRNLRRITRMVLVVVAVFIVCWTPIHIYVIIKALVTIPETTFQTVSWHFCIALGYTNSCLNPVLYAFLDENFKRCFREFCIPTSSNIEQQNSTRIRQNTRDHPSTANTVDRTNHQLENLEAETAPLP

[10] = target: Histamine H3 receptor (Homo sapiens, UniProt Q9Y5N1)
Histamine H3 receptor, sequence (Q9Y5N1 whole entry): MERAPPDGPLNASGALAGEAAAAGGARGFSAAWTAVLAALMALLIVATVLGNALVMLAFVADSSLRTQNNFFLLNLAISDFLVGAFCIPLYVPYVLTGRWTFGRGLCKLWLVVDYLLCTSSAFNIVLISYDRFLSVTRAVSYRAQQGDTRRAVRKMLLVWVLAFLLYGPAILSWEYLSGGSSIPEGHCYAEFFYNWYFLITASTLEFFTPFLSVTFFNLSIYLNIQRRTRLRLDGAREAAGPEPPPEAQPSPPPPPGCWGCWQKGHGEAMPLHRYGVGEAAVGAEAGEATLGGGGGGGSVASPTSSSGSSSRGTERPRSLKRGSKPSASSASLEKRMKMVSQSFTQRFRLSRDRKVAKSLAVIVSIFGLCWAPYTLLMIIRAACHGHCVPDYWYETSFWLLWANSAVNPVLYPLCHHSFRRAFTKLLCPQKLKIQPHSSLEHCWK

[11] = target: T4, Mu-type opioid receptor; test: biochemical; type: functional
Note: assay procedure not described here.

Compound	AC50 [1] [µM]	AC50 [2] [µM]	AC50 [3] [µM]	AC50 [4] [µM]	AC50 [5] [µM]	AC50 [6] [µM]	AC50 [7] [µM]	AC50 [8] [µM]	AC50 [9] [µM]	AC50 [10] [µM]	AC50 [11] [µM]
C[N+]1(C)CCC(=C(c2ccccc2)c2ccccc2)CC1	> 10	> 10	> 30	> 10	29	> 30	> 10	> 10	> 30		
CN(C)Cc1nnc2n1-c1ccc(Cl)cc1C(c1ccccc1)=NC2 [ADINAZOLAM]	> 10	> 10	> 10	> 10	> 10	> 30	> 10	> 10	> 30	> 10	
Cc1ccccc1-n1c(CF)nc2ccc(N)cc2c1=O [AFLOQUALONE]	> 10	> 10	> 30	> 10	> 10	13	> 30	> 30	> 30	> 30	> 30
CCC1(c2ccc(N)cc2)CCC(=O)NC1=O (centres undefined) [AMINOGLUTETHIMIDE]		> 30	> 30	> 30		9.5	> 30	> 30	> 30	> 30	> 30
O=C(/C=C/c1cccc(S(=O)(=O)Nc2ccccc2)c1)NO [BELINOSTAT]	> 10	> 10	> 30	> 10		7.1		> 10	> 30	> 10	
CC(Cc1cccc(C(F)(F)F)c1)NCCOC(=O)c1ccccc1 (centres undefined) [BENFLUOREX]		2.41	28	> 30	0.495		> 30	23	17	> 30	11
CC(C)(Oc1ccc(CCNC(=O)c2ccc(Cl)cc2)cc1)C(=O)O [BEZAFIBRATE]		> 10	> 10	> 10	> 10	> 30	> 10	> 10	> 30	> 10	
CC(O)(CS(=O)(=O)c1ccc(F)cc1)C(=O)Nc1ccc(C#N)c(C(F)(F)F)c1 (centres undefined) [BICALUTAMIDE]		13	2.2	> 10	> 10	> 30	> 30	> 30	> 10	> 30	
C/C=C(/C(=C/C)c1ccc(O)cc1)c1ccc(O)cc1 [DIENESTROL]	> 10	> 10	> 10	> 10	> 10	> 30	> 30	> 30	> 30		> 30

From ChEMBL document CHEMBL5291721, “A preclinical secondary pharmacology resource illuminates target-adverse drug reaction associations of marketed drugs” (Nat Commun, 2023)
